According to patent publication US11952584B2, “Functional peptides having antimicrobial activity against phytopathogenic microorganisms” (TOYOTA JIDOSHA KABUSHIKI KAISHA, priority 2019, dated 2024):
Where “and” joins values, the source holds several entries; their conditions need not be identical. Identical values can stand only once. Entries after “also recorded” stand apart in the source; their conditions may differ. Like-named read-outs stand apart in the source and are kept apart here. Ends that are not written are not given here.

Key:
[1] = tested on: Botrytis cinerea; type: cell-based; settings: for Plate antimicrobial activity test Botrytis cinerea (level): 25° C., 1 day or 2 days
[2] = tested on: Colletotrichum destructivum; type: cell-based; settings: for Plate antimicrobial activity test Colletotrichum destructivum (level): 25° C., 1 day or 2 days
[3] = tested on: Colletotrichum orbiculare; type: cell-based; settings: for Plate antimicrobial activity test Collectotrichum orbiculare (level): 25° C., 1 day or 2 days
[4] = tested on: Fusarium oxysporum; type: cell-based
[5] = tested on: Pyricularia oryzae; type: cell-based; settings: for Plate antimicrobial activity test Pyricularia oryzae (level): 25° C., 1 day or 2 days
[6] = tested on: Botrytis cinerea; experiment: Botrytis cinerea leaf inoculation test (tomato leaf); type: in vivo; settings: tomato leaf, 25° C.
Description: In the present example, a suspension comprising Botrytis cinerea and a peptide to be tested was dropped on a plant leaf, and lesions were then observed by visual inspection to evaluate the antimicrobial activity of the tested peptide. First, the pores of Botrytis cinerea were suspended in a potato dextrose broth (PDB) to result in a spore concentration of 5×10^5 spores/ml, so as to prepare a PDB suspension spore solution. Subsequently, a peptide to be tested (TsORF18-2) was added to the PDB suspension spore solution, so that the final concentration of the peptide to be tested became 0 μM, 1 μM, 10 μM or 100 μM. It is to be noted that, as peptides to be tested, TsORF18 (full length) and TsORF18-40 a.a. were also used in the same manner as that of TsORF18-2. TsORF18 (full length) was dissolved in DMSO and was then used. On the other hand, TsORF18-2 and TsORF18-40 a.a were each dissolved in Milli-Q water and were then used. Thereafter, 10 μl each of the PDB suspension spore solution containing the peptide to be tested was dropped on the front side and the back side of the leaf of tomato (variety name: “Ponte Rosa”). In this condition, incubation was carried out at 25° C. for 2 days. Thereafter, the front and back sides of the leaf were observed by visual inspection.

[7] = tested on: Colletotrichum destructivum; experiment: Colletotrichum destructivum leaf inoculation test (Chinese cabbage leaf); type: in vivo; settings: 25° C.; for Leaf inoculation test Chinese cabbage/Colletotrichum destructivum: 4 days, lesions by visual inspection
[8] = tested on: Ralstonia solanacearum; settings: peptide 100 μM, 28° C. a whole day and night
[9] = tested on: Erwinia carotovora subsp. carotovora
[10] = tested on: Xanthomonas oryzae pv. oryzae
[11] = tested on: Pseudomonas syringae pv. tomato
[12] = plate test, microscopic observation (FIG. 1), concentration not given

Sequence: YYGFPAFSERTRKFWRIWKGKT [TsORF18-2]
- Plate antimicrobial activity test Botrytis cinerea (level) ([1]; peptide 1 μM): 1
- Plate antimicrobial activity test Botrytis cinerea (level) ([1]; peptide 10 μM): 3
- Plate antimicrobial activity test Botrytis cinerea (level) ([1]; peptide 100 μM): 3
- inhibition of germination of Botrytis cinerea (in words) [1, 12]: completely inhibited; also recorded: could inhibit germination
- Plate antimicrobial activity test Colletotrichum destructivum (level) ([2]; peptide 1 μM): 0
- Plate antimicrobial activity test Colletotrichum destructivum (level) ([2]; peptide 10 μM): 2
- Plate antimicrobial activity test Colletotrichum destructivum (level) ([2]; peptide 100 μM): 3
- inhibition of germination of Colletotrichum destructivum (in words) [2, 12]: completely inhibited; also recorded: could inhibit germination
- Plate antimicrobial activity test Collectotrichum orbiculare (level) ([3]; peptide 1 μM): 0
- Plate antimicrobial activity test Collectotrichum orbiculare (level) ([3]; peptide 10 μM): 1
- Plate antimicrobial activity test Collectotrichum orbiculare (level) ([3]; peptide 100 μM): 3
- inhibition of germination of Colletotrichum orbiculare (in words) [3, 12]: completely inhibited; also recorded: could inhibit germination
- Plate antimicrobial activity test Fusarium oxysporum (level) [4]: 3 and 1 and 0
- inhibition of germination of Fusarium oxysporum (in words) [4]: completely inhibited; also recorded: could inhibit germination
- Plate antimicrobial activity test Pyricularia oryzae (level) ([5]; peptide 1 μM): 0
- Plate antimicrobial activity test Pyricularia oryzae (level) ([5]; peptide 10 μM): 0
- Plate antimicrobial activity test Pyricularia oryzae (level) ([5]; peptide 100 μM): 3
- inhibition of germination of Pyricularia oryzae (in words) [5, 12]: completely inhibited; also recorded: could inhibit germination
- lesion of Botrytis cinerea (in words) ([6]; 100 μM, 2 days (FIG. 2)): not observed
- Leaf inoculation test Tomato/Botrytis cinerea ([6]; peptide 100 μM, 2 days, lesions by visual inspection): ∘
- lesion of Colletotrichum destructivum (in words) ([7]; any concentration of 1 μM, 10 μM or 100 μM, 4 days (FIG. 3)): not observed
- Leaf inoculation test Chinese cabbage/Colletotrichum destructivum ([7]; peptide 1 μM): ∘
- Leaf inoculation test Chinese cabbage/Colletotrichum destructivum ([7]; peptide 10 μM): ∘
- Leaf inoculation test Chinese cabbage/Colletotrichum destructivum ([7]; peptide 100 μM): ∘
- Inhibitory rate Ralstonia solanacearum ([8]; relative to water): 13.8%
- OD600 Ralstonia solanacearum ([8]; water control 2.6): 2.2
- OD600 Erwinia carotovora subsp. cartovora [9]: 2.6
- Inhibitory rate Erwinia carotovora subsp. cartovora ([9]; 100 μM): −39.2%
- Inhibitory rate Xanthomonas oryzae pv. oryzae ([10]; peptide 100 μM, 28° C. a whole day and night, relative to water): 90.1%
- OD600 Xanthomonas oryzae pv. oryzae ([10]; peptide 100 μM, 28° C. a whole day and night, water control 2.1): 0.2
- inhibition of growth of Xanthomonas oryzae pv. oryzae (in words) ([10]; summary of Table 4, 100 μM): could inhibit the growth
- OD600 Pseudomonas syringae pv. tomato [11]: 1.9
- Inhibitory rate Pseudomonas syringae pv. tomato ([11]; 100 μM): 25.3%
- inhibition of growth of Pseudomonas syringae pv. tomato (in words) ([11]; 100 μM): could inhibit the growth
